According to paper PMC6013238, “Development of novel NEMO-binding domain mimetics for inhibiting IKK/NF-κB activation” (PLoS Biology, 2018):
Values joined by “and” are separate entries in the source; they are usually repeats but may differ in a detail not shown here. Identical values can stand only once. Like-named read-outs stand apart in the source and are kept apart here.

Columns and labels:
NF-κB activation = experiment: NF-κB firefly luciferase reporter assay, TNF-α-stimulated stably transfected HEK293 cells; assay type: cell-based, human; details: for NF-κB luciferase activity normalized to vehicle: Fig 2C, derivatives at 100 μM, TNF-α 10 ng/ml 3 h, vehicle = 100, single experiments; for NF-κB luciferase activity normalized to control: control = 100
Description: To determine whether the small molecules identified by the in silico screening inhibit NF-κB activation, a HEK293 cell line stably expressing a luciferase reporter driven by a synthetic, NF-κB-dependent promoter was utilized. To induce NF-κB activation, cells were treated with 10 ng/mL of TNF-α and harvested 3 h post treatment for analysis of luciferase activity. […] To determine whether ZINC12909780 inhibits NF-κB in a dose-dependent manner, concentrations were tested at 0, 6.25, 25, 50, and 100 μM.
Luciferase activity was normalized to untreated stimulated control cells. […] Cell viability was calculated by normalizing to untreated cells. […] Underlying data can be found in S1 Data.
HEK293 cells stably transfected with luciferase reporter plasmid driven by NF-κB were seeded in 96-well plates in triplicate and pretreated with DMSO or varying small molecules at indicated concentration for 30 min, followed by the stimulation of 10 ng/ml of TNF-α for 3 h. Cells were washed with PBS once and harvested in Passive Lysis Buffer (Promega, Madison, WI). Luciferase assay (Promega) was performed by using a luminometer according to the manufacturer’s instructions.

[1] = system: p-IκBα (IKK kinase activity); experiment: Western blot of p-IκBα after TNF-α in HEK293 cells; assay type: cell-based, human; details: 100 μM, 30 min pretreatment, TNF-α 10 ng/ml 0, 5, 10 min
Description: To confirm that the NBD mimetics reduce IKK kinase activity, phosphorylation of IκBα by IKK in response to 10 ng/ml of TNF-α was measured by western blot at 0, 5, and 10 min after stimulation. […] To determine whether the mimetics also reduce NF-κB DNA binding activity, electrophoretic mobility shift assay (EMSA) was conducted both in vitro and in vivo. […] The addition of acetonitrile increased the stability of both ZINC compounds, especially ZINC 5 (Fig 3D).
Fig 3 Two identified small molecules reduce NF-κB DNA binding activity in vivo and in vitro. (A) Levels of p-IκBα with or without treatment in response to TNF-α were determined by western blot analysis. HEK293 cells were pretreated with DMSO, ZINC12909780 (100 μM), and ZINC5 (100 μM) for 30 min followed by the stimulation of 10 ng/ml of TNF-α for 0, 5, and 10 min. […]
Cell lysate was prepared in RIPA buffer (20 mM Tris-HCl [pH 7.5], 150 mM NaCl, 1 mM Na^2EDTA, 1 mM EGTA, 1% NP-40, 1% sodium deoxycholate, 2.5 mM sodium pyrophosphate, 1 mM beta-glycerophosphate, 1 mM Na3VO4, and 1 μg/ml leupeptin), supplemented with 1X protease inhibitor cocktails (MilliporeSigma, St. Louis, MO) and 1X Halt phosphatase inhibitor cocktail (ThermoFisher, Waltham, MA). Protein concentrations were determined by Lowry protein assays, and 30 μg of protein was resolved by MINI-PROTEAN TGX 4%–15% SDS-PAGE gels. […]

[2] = Mouse PK, i.v. and oral gavage; assay type: in vivo; details: for bioavailability: PO 10mg/Kg versus IV, Avg.
Description: Supplementary file pbio.2004663.s002.tif: S1 Fig IC50 and the complete pharmacokinetic profiles of NBD mimetics. (A) Dose-dependent curve of NBD mimetics ranging from 0 to 150 μM was determined by NF-κB luciferase assays in HEK293 cells. (B) Complete pharmacokinetic profiles of SR12460 and SR12343 administered i.v. or by oral gavage in mice. Underlying data can be found in S1 Data. AUC%Extrap, percentage of the area under the curve extrapolated to infinity from Tlast to infinity; AUCINF_obs, area under the curve from 0 to infinity; AUClast, area under the curve from the time of dosing to the last measurable concentration; Cmax, maximum observed concentration; Clobs, total serum clearance; HEK, human embryonic kidney 293 cells; IC50, half maximal inhibitory concentration; NBD, NEMO-binding domain; NEMO, NF-κB essential modulator; NF-κB, nuclear factor κB; T1/2, half-life; Tmax, time of maximum concentration. (TIF) Click here for additional data file.

[3] = IV 2mg/Kg, single mice and Avg., 2 mg/kg
[4] = IV 2mg/Kg, single mice and Avg., 2 mg/kg, mean
[5] = PO 10mg/Kg, single mice and Avg., 10 mg/kg
[6] = PO 10mg/Kg, single mice and Avg., 10 mg/kg, mean
[7] = mouse, serum, po, 10 mg/kg, PO 10mg/Kg, single mice and Avg.

## O=C(COC(=O)Cc1ccccc1F)Nc1ccc(Cl)cn1 [ZINC5]
NF-κB activation
  NF-κB luciferase activity normalized to vehicle: 58.79 and 64.16 and 89.81 and 46.87 and 48.05
NF-κB activation; listed as Zinc5
  NF-κB luciferase activity normalized to vehicle: lowered NF-κB activity robustly
NF-κB activation; Fig 2E, 25 μM
  NF-κB luciferase activity normalized to control: 78.88 and 74.23 and 94.1 and 85.57 and 85.27
NF-κB activation; Fig 2E, 50 μM
  NF-κB luciferase activity normalized to control: 78.97 and 56.84 and 56.56 and 66.34
NF-κB activation; Fig 2E, 100 μM
  NF-κB luciferase activity normalized to control: 40.8 and 50.51 and 60.75 and 33.05 and 42.78
[1]
  Level of p-IκBα following TNF-α stimulation: reduced the level of p-IκBα

## Nc1ncccc1C(=O)OCC(=O)Nc1ccc(Cl)cc1F [ZINC12909780]
NF-κB activation; Fig 2B, 6.25 μM (log 0.79588)
  NF-κB luciferase activity normalized to control: 96.2175 and 102.44 and 115.164
NF-κB activation; Fig 2B, 25 μM (log 1.39794)
  NF-κB luciferase activity normalized to control: 93.2591 and 96.1802 and 73.5256
[1]
  Level of p-IκBα following TNF-α stimulation: less robust reduction

## O=C(CNCCc1cc(F)cc(F)c1)Nc1ccc(Cl)cn1 [SR12460]
[2]; [3]
  AUC %Extrap: 17.95% and 11.52%
  MRTINF_obs: 3.50 h
  T1/2: 2.57 h
  Vss_obs: 0.17 L/kg and 0.30 L/kg
[2]; [4]
  AUC %Extrap: 14.74%
  MRTINF_obs: 3.99 h
  T1/2: 2.99 h
  Vss_obs: 0.23 L/kg
[2]; [5]
  T1/2: 1.99 h and 1.74 h
  Tmax: 1.00 h
[2]; [6]
  T1/2: 2.35 h
  Tmax: 0.67 h
[2]; mouse, serum, iv, 2 mg/kg, IV 2mg/Kg, single mice and Avg.
  half-life: 3.42 h
[2]; mouse, serum, iv, 2 mg/kg, IV 2mg/Kg, single mice and Avg., read-out: MRTINF_obs
  MRT inf: 4.49 h
[2]; [7]
  AUC(0-t): 47600 ng·h/mL and 146 µM·h
  Cmax: 11200 ng/mL and 34.5 µM
  half-life: 3.31 h
[2]; mouse, serum, po, 10 mg/kg, PO 10mg/Kg, single mice and Avg., read-out: Tmax
  Tmax: 0.5 h
[2]; mouse, serum
  bioavailability: 20.1%

## O=C(CNc1ccc(Cl)cn1)NCCc1cccc(Br)c1 [SR12343]
[2]; IV 1mg/Kg, single mice and Avg., 1 mg/kg
  AUC %Extrap: 0.68% and 0.92% and 0.30%
[2]; IV 1mg/Kg, single mice and Avg., 1 mg/kg, mean
  AUC %Extrap: 0.63%
[2]; [5]
  AUC %Extrap: 0.51% and 0.40% and 0.32%
  AUCINF_obs: 11013 ng·min/mL and 20121 ng·min/mL
  Cl_obs: 862.00 mL/min/kg and 908.01 mL/min/kg and 497.00 mL/min/kg
  T1/2: 0.50 h
[2]; [6]
  AUC %Extrap: 0.41%
  AUCINF_obs: 14245 ng·min/mL
  Cl_obs: 755.67 mL/min/kg
  T1/2: 0.53 h
[2]; S1B Fig
  Oral activity (comparison): not as orally active as SR123460
[2]; mouse, serum, iv, 1 mg/kg, IV 1mg/Kg, single mice and Avg., read-out: Tmax
  Tmax: 0.08 h
[2]; [7]
  AUC(0-t): 192 ng·h/mL and 0.52 µM·h
  Cmax: 523 ng/mL and 1.43 µM
  half-life: 0.58 h
[2]; mouse, serum, po, 10 mg/kg, PO 10mg/Kg, single mice and Avg., read-out: AUCINF_obs (converted)
  AUC(0-inf): 193 ng·h/mL
[2]; mouse, serum
  bioavailability: 0.86%
